Measurements taken from PubChem BioAssay AID330 (DTP/NCI, 2004).
Where “and” joins values, the source holds several entries; their conditions need not be identical. Identical values can stand only once. Toxic doses and inconclusive results are not listed. The calls were made as follows: active = survival T/C of 150% or more; inactive = T/C below 125% in these data.

Tested on: P388 leukemia ip, CD2F1 mice, survival T/C
Experiment: NCI In Vivo Anticancer Drug Screen. Data for tumor model P388 Leukemia (intraperitoneal) in CD2F1 (CDF1) mice
Settings: endpoint: median survival time, higher = longer survival
Summary of the method: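 Mice carrying the transplanted tumor received test compound or vehicle. Survival was recorded in each group, and the value is the treated-group measurement divided by that of the vehicle-treated control group.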

[1] = dose: 50.0 mg/kg/injection, schedule: Q01DX009 (ip), vehicle: saline
[2] = dose: 100.0 mg/kg/injection, schedule: Q01DX009 (ip), vehicle: saline
[3] = dose: 200.0 mg/kg/injection, schedule: Q01DX009 (ip), vehicle: saline
[4] = dose: 50.0 mg/kg/injection, schedule: Q01DX005 (ip), vehicle: saline with Tween-80
[5] = dose: 100.0 mg/kg/injection, schedule: Q01DX005 (ip), vehicle: saline with Tween-80
[6] = dose: 200.0 mg/kg/injection, schedule: Q01DX005 (ip), vehicle: saline with Tween-80
[7] = dose: 50.0 mg/kg/injection, schedule: Q01DX005 (ip), vehicle: Klucel (hydroxypropylcellulose) (HPC)
[8] = dose: 100.0 mg/kg/injection, schedule: Q01DX005 (ip), vehicle: Klucel (hydroxypropylcellulose) (HPC)
[9] = dose: 200.0 mg/kg/injection, schedule: Q01DX005 (ip), vehicle: Klucel (hydroxypropylcellulose) (HPC)
[10] = dose: 25.0 mg/kg/injection, schedule: Q01DX009 (ip), vehicle: saline
[11] = dose: 100.0 mg/kg/injection, schedule: Q04DX003 (ip), vehicle: saline with Tween-80
[12] = dose: 200.0 mg/kg/injection, schedule: Q04DX003 (ip), vehicle: saline with Tween-80
[13] = dose: 400.0 mg/kg/injection, schedule: Q04DX003 (ip), vehicle: saline with Tween-80
[14] = dose: 100.0 mg/kg/injection, schedule: Q01DX001 (ip), vehicle: saline with Tween-80
[15] = dose: 200.0 mg/kg/injection, schedule: Q01DX001 (ip), vehicle: saline with Tween-80
[16] = dose: 60.0 mg/kg/injection, schedule: Q01DX005 (ip), vehicle: saline with Tween-80
[17] = dose: 120.0 mg/kg/injection, schedule: Q01DX005 (ip), vehicle: saline with Tween-80
[18] = dose: 240.0 mg/kg/injection, schedule: Q01DX005 (ip), vehicle: saline with Tween-80
[19] = dose: 50.0 mg/kg/injection, schedule: Q01DX009 (ip), vehicle: Klucel (hydroxypropylcellulose) (HPC)
[20] = dose: 100.0 mg/kg/injection, schedule: Q01DX009 (ip), vehicle: Klucel (hydroxypropylcellulose) (HPC)
[21] = dose: 200.0 mg/kg/injection, schedule: Q01DX009 (ip), vehicle: Klucel (hydroxypropylcellulose) (HPC)

Measured: T/C

CCN(CC)CCCN(c1ccccc1)C1Cc2ccccc2C1
inactive: dose: 15.0 mg/kg/injection, schedule: Q01DX009 (ip), vehicle: saline 95 % of control | dose: 30.0 mg/kg/injection, schedule: Q01DX009 (ip), vehicle: saline 87 % of control | dose: 60.0 mg/kg/injection, schedule: Q01DX009 (ip), vehicle: saline 101 % of control

O=C1CSC(=S)N1c1ccc(N=Nc2ccccc2)cc1
inactive: [1] 98 % of control | [2] 99 % of control | [3] 86 % of control

CC(=O)C1C(=O)C(=O)N(c2ccc(C)c(C)c2)C1=O (stereo not drawn)
inactive: [4] 101 % of control | [5] 97 % of control | [6] 100 % of control

N#Cc1c(-c2cccn(-c3ccccc3)c2=O)cc(-c2ccccc2)[nH]c1=O
inactive: [7] 88 % of control | [8] 89 % of control | [9] 110 % of control

CC1=C/C(=C(\c2cc(C)c(O)c(C(=O)O)c2)c2c(Cl)ccc(S(=O)(=O)O)c2Cl)C=C(C(=O)O)C1=O
inactive: [10] 102 % of control | [1] 102 % of control and 91 % of control | [2] 108 % of control and 95 % of control | [3] 98 % of control and 106 % of control

c1ccc(N/N=C2/CCN3CCCc4cccc2c43)cc1
inactive: dose: 12.5 mg/kg/injection, schedule: Q04DX003 (ip), vehicle: DMSO 100 % of control | dose: 25.0 mg/kg/injection, schedule: Q04DX003 (ip), vehicle: DMSO 101 % of control | dose: 50.0 mg/kg/injection, schedule: Q04DX003 (ip), vehicle: DMSO 110 % of control

COc1ccc(Cc2cc3c(cc2OCCOC(C)=O)OCO3)cc1
inactive: [4] 110 % of control | [5] 105 % of control | [6] 103 % of control

c1ccc2c(c1)Nc1ccc3ccccc3c1S2
inactive: dose: 25.0 mg/kg/injection, schedule: Q01DX009 (ip), vehicle: saline with Tween-80 98 % of control | dose: 50.0 mg/kg/injection, schedule: Q01DX009 (ip), vehicle: saline with Tween-80 105 % of control | dose: 100.0 mg/kg/injection, schedule: Q01DX009 (ip), vehicle: saline with Tween-80 96 % of control | dose: 200.0 mg/kg/injection, schedule: Q01DX009 (ip), vehicle: saline with Tween-80 108 % of control

O=C(Nc1ccc(N=Nc2ccc(S(=O)(=O)O)cc2)cc1)c1ccc(N=Nc2c(S(=O)(=O)O)cc(O)c3c(NC(=O)c4ccccc4)cc(S(=O)(=O)O)cc23)cc1
inactive: [4] 95 % of control | [5] 93 % of control | [6] 95 % of control

OC(CCl)Cn1nc2ccc3ccccc3c2n1 (stereo not drawn)
inactive: [7] 102 % of control | [8] 100 % of control | dose: 100.0 mg/kg/injection, schedule: Q04DX003 (ip), vehicle: Klucel (hydroxypropylcellulose) (HPC) 103 % of control | [9] 101 % of control | dose: 200.0 mg/kg/injection, schedule: Q04DX003 (ip), vehicle: Klucel (hydroxypropylcellulose) (HPC) 102 % of control | dose: 400.0 mg/kg/injection, schedule: Q04DX003 (ip), vehicle: Klucel (hydroxypropylcellulose) (HPC) 96 % of control

CCOC(=O)NC(=S)Nc1ncn[nH]1
inactive: dose: 50.0 mg/kg/injection, schedule: Q04DX003 (ip), vehicle: saline with Tween-80 100 % of control | [11] 95 % of control | [12] 100 % of control | [13] 99 % of control

CC(C)c1ccc([C](C)(CC(C)(C)C)[Sn]([CH3])([CH3])[CH3])cc1 (stereo not drawn)
inactive: dose: 3.13 mg/kg/injection, schedule: Q04DX003 (ip), vehicle: Klucel (hydroxypropylcellulose) (HPC) 105 % of control | dose: 6.25 mg/kg/injection, schedule: Q04DX003 (ip), vehicle: Klucel (hydroxypropylcellulose) (HPC) 92 % of control | dose: 12.5 mg/kg/injection, schedule: Q04DX003 (ip), vehicle: Klucel (hydroxypropylcellulose) (HPC) 91 % of control

COC(=O)N(C)SN(C)C(=O)O/N=C(\SC)C(=O)N(C)C
inactive: dose: 1.56 mg/kg/injection, schedule: Q01DX009 (ip), vehicle: saline 101 % of control | dose: 3.12 mg/kg/injection, schedule: Q01DX009 (ip), vehicle: saline 102 % of control

Cc1ccc(N)c2ccccc12
inactive: [1] 117 % of control | [2] 112 % of control

CC1(C)CC1(Cl)S(C)(=O)=O (stereo not drawn)
inactive: [14] 106 % of control | [15] 105 % of control | dose: 400.0 mg/kg/injection, schedule: Q01DX001 (ip), vehicle: saline with Tween-80 100 % of control

O=C1NC(=O)C2(CC3CCCC(C2)N3)N1 (stereo not drawn)
inactive: dose: 100.0 mg/kg/injection, schedule: Q04DX003 (ip), vehicle: water 101 % of control | dose: 200.0 mg/kg/injection, schedule: Q04DX003 (ip), vehicle: water 99 % of control | dose: 400.0 mg/kg/injection, schedule: Q04DX003 (ip), vehicle: water 103 % of control

NC(N)=N/N=C1\C(=O)N(c2cccc([N+](=O)[O-])c2)C(=O)C1C(=O)Nc1cccc([N+](=O)[O-])c1 (stereo not drawn)
inactive: [14] 102 % of control | [15] 100 % of control

C1CCCNCCNCCNCC1
inactive: [16] 98 % of control | [17] 100 % of control | [18] 92 % of control

Cc1c2cnccc2c(C)c2c1c1ccccc1n2CCOC(=O)c1ccccc1
inactive: [11] 95 % of control | [12] 86 % of control | [13] 86 % of control

CC(C)(C)c1cc(C(c2ccccc2)(c2ccccc2)c2ccccc2)cc2c1[O][Sb]([c]1ccccc1)([c]1ccccc1)([c]1ccccc1)[NH]2
inactive: [19] 102 % of control | [20] 103 % of control | [21] 116 % of control

O=S(=O)(c1ccc2ccccc2c1)N(CCCCCN(S(=O)(=O)c1ccc2ccccc2c1)S(=O)(=O)c1ccc2ccccc2c1)S(=O)(=O)c1ccc2ccccc2c1
inactive: [16] 104 % of control | [17] 94 % of control

CCOC(=O)NC
inactive: dose: 100.0 mg/kg/injection, schedule: Q04DX003 (ip), vehicle: saline 104 % of control | dose: 200.0 mg/kg/injection, schedule: Q04DX003 (ip), vehicle: saline 100 % of control | dose: 400.0 mg/kg/injection, schedule: Q04DX003 (ip), vehicle: saline 104 % of control

CCOC(=O)C(SC(Cl)(S(=O)(=O)c1ccccc1)S(=O)(=O)c1ccccc1)C(=O)OCC
inactive: dose: 25.0 mg/kg/injection, schedule: Q01DX009 (ip), vehicle: Klucel (hydroxypropylcellulose) (HPC) 105 % of control and 109 % of control | [19] 116 % of control and 120 % of control and 121 % of control | [20] 115 % of control and 116 % of control and 124 % of control | [21] 110 % of control and 120 % of control and 121 % of control | dose: 400.0 mg/kg/injection, schedule: Q01DX009 (ip), vehicle: Klucel (hydroxypropylcellulose) (HPC) 109 % of control

CCOC(=O)C1SC(=S)N(c2ccccc2)C1N (stereo not drawn)
inactive: dose: 12.5 mg/kg/injection, schedule: Q01DX009 (ip), vehicle: saline 98 % of control | [10] 104 % of control | [1] 105 % of control and 86 % of control

COc1ccc(C(CCO)c2cc3c(cc2OC)OCO3)cc1 (stereo not drawn)
inactive: dose: 50.0 mg/kg/injection, schedule: Q01DX005 (ip), vehicle: distilled water + Tween-80 101 % of control | dose: 100.0 mg/kg/injection, schedule: Q01DX005 (ip), vehicle: distilled water + Tween-80 101 % of control | dose: 200.0 mg/kg/injection, schedule: Q01DX005 (ip), vehicle: distilled water + Tween-80 98 % of control

CC(C)=COS(=O)(=O)C(F)(F)F
inactive: dose: 50.0 mg/kg/injection, schedule: Q01DX009 (ip), vehicle: olive oil, sesame oil, peanut oil 99 % of control | dose: 100.0 mg/kg/injection, schedule: Q01DX009 (ip), vehicle: olive oil, sesame oil, peanut oil 96 % of control | dose: 200.0 mg/kg/injection, schedule: Q01DX009 (ip), vehicle: olive oil, sesame oil, peanut oil 90 % of control

CNC(=O)N(C)C(=O)c1ccncc1C(=O)N(C(=O)NC1CCCCC1)C1CCCCC1
inactive: [4] 98 % of control | [5] 89 % of control | [6] 89 % of control

COc1cc(C2C(C#N)=C(C)Nc3nc(N)nc(N)c32)cc(OC)c1OC (stereo not drawn)
inactive: [16] 94 % of control | [17] 106 % of control | [18] 104 % of control
